From patent US20030191096A1, “Method of hormonal therapy” (priority 2002, published 2003)

Test system: male accessory sex glands and tissues in sexually immature castrated male rats
Assay: Oral Hershberger Assay: weights of male accessory sex glands and tissues after ten days of oral gavage
Type: in vivo, rat
Settings: ten consecutive days
Experimental: Applicants performed a set of experiments to identify the potential for a compound to mimic endogenous sex hormones. An in vivo study was performed using a short-term screening assay to identify changes in weights of male accessory sex glands and tissues in sexually immature castrated male rats. The study preformed is known in the art as an “Oral Hershberger Assay”.
This study included forty-two sexually immature castrated male rats that were randomly assigned to seven different groups and assigned formulations of the test article, oxandrolone, positive control article, 17α-methyl testosterone, or the vehicle, aqueous 0.5% methylcellulose. These formulations were administered orally via gavage once daily for ten consecutive days at dosages of 0 (vehicle), 1, 3 and 10 mg/kg/day. The dosage volume was 0.5 mL/kg, adjusted daily for body weight changes and were given at approximately the same time each day.
Approximately 24 hours after the last dosage administration the rats were euthanized via carbon dioxide asphyxiation. The following tissues were excised trimmed and weighed: liver, paired adrenal glands, paired kidneys, ventral prostate, seminal vesicles together with the coagulating gland, levator ani and bulbocavemous muscles, glands penis and cowper's gland. These tissues were retained in neutral buffered 10% formalin to be used for any possible future evaluation.
The following table presents the percent changes from the control group value.

Row | SMILES | Cowpers Gland, percent changes from the control group value (1 mg/kg/day orally via gavage) | Glands Penis, percent changes from the control group value (1 mg/kg/day orally via gavage) | Levator Ani and Bulbocavernous, percent changes from the control group value (1 mg/kg/day orally via gavage) | Prostate (Fixed), percent changes from the control group value (1 mg/kg/day orally via gavage) | Prostate, percent changes from the control group value (1 mg/kg/day orally via gavage) | Seminal Vesicles with Fluid, percent changes from the control group value (1 mg/kg/day orally via gavage) | Cowpers Gland, percent changes from the control group value (3 mg/kg/day orally via gavage) | Glands Penis, percent changes from the control group value (3 mg/kg/day orally via gavage) | Levator Ani and Bulbocavernous, percent changes from the control group value (3 mg/kg/day orally via gavage) | Prostate (Fixed), percent changes from the control group value (3 mg/kg/day orally via gavage) | Prostate, percent changes from the control group value (3 mg/kg/day orally via gavage) | Seminal Vesicles with Fluid, percent changes from the control group value (3 mg/kg/day orally via gavage) | Cowpers Gland, percent changes from the control group value (10 mg/kg/day orally via gavage) | Glands Penis, percent changes from the control group value (10 mg/kg/day orally via gavage) | Levator Ani and Bulbocavernous, percent changes from the control group value (10 mg/kg/day orally via gavage) | Prostate (Fixed), percent changes from the control group value (10 mg/kg/day orally via gavage) | Prostate, percent changes from the control group value (10 mg/kg/day orally via gavage) | Seminal Vesicles with Fluid, percent changes from the control group value (10 mg/kg/day orally via gavage)
1 | C[C@]12CCC(=O)C=C1CC[C@@H]1[C@@H]2CC[C@@]2(C)[C@H]1CC[C@]2(C)O [Meth-Test, 17α-methyl testosterone] | 88.7% | 127.9% | 111.0% | 101.9% | 97.0% | 89.6% | 179.0% | 102.6% | 114.2% | 119.0% | 109.1% | 118.0% | 237.1% | 122.9% | 139.7% | 234.0% | 222.5% | 194.4%
2 | C[C@]12COC(=O)C[C@@H]1CC[C@@H]1[C@@H]2CC[C@@]2(C)[C@H]1CC[C@]2(C)O [Oxandro, oxandrolone] | 137.1% | 104.1% | 107.3% | 127.6% | 135.3% | 100.7% | 159.7% | 107.4% | 148.2% | 149.9% | 139.4% | 120.1% | 206.5% | 109.6% | 192.4% | 192.2% | 166.3% | 171.0%
